Source: paper PMC10016340 (Chemical Science, 2023)
Where two headings read alike, the source gives them in different places.

Experiments:
[1] = test system: human neuroblastoma cells; settings: by inhibiting interactions with lipid membranes; cited from earlier work
[2] = Ultracentrifugation for compound-vesicle binding; settings: 100 μM compound, 1 mM DOPG vesicles, 30 min, ultracentrifugation 1 h 40 000 rpm
[3] = biological target: α-syn (Homo sapiens, UniProt P37840); assay: ThT aggregation kinetics of α-syn; type: biochemical; settings: for Effect on α-syn fibril formation (ThT, words): 300 rpm, 37 °C
[4] = biological target: T1, αSO (α-synuclein oligomers) (Homo sapiens, UniProt P37840); settings: cited from earlier work
[5] = biological target: αSOs-Alexa488 binding to DOPG liposomes (Homo sapiens, UniProt P37840); assay: FIDA αSO-vesicle binding inhibition assay; settings: 5 μM compound, 50 μM DOPG; αSO-vesicle complex without compound ∼60 nm
[6] = biological target: T2, αSOs-Alexa488 (Homo sapiens, UniProt P37840); assay: FIDA effect of lead compounds on free αSOs; type: binding; settings: 150 nM αSO, 5 μM compound; 13% without compound
[7] = biological target: T2, αSOs-Alexa488; assay: FIDA binding of αSOs to neuronal proteins in solution
[8] = biological target: αSO (Homo sapiens, UniProt P37840); assay: biochemical; type: binding; settings: for αSO binding signal in sandwich ELISA vs positive control: 2 mM compound, 1 μg mL^−1 αSOs
[9] = biological target: T1, αSO (α-synuclein oligomers); assay: Membrane permeabilization; type: biochemical; settings: for Response in dose-response calcein assay: even at 20 μM

CC(C)[C@@H](CC[C@@H](C)[C@H]1CC[C@H]2[C@@H]3[C@H](O)C[C@H]4C[C@@H](NCCCNCCCCN)CC[C@]4(C)[C@H]3CC[C@]12C)OS(=O)(=O)O [squalamine]
Suppression of αSO toxicity [1]: completely suppress the toxicity of αSOs

N.N.[Cl][Pt][Cl] [A8, Cisplatin]
Percentage of compound bound to DOPG vesicles (pelleted) [2]: 0–2%

O=C(O[C@@H]1Cc2c(O)cc(O)cc2O[C@@H]1c1cc(O)c(O)c(O)c1)c1cc(O)c(O)c(O)c1 [EGCG]
Effect on α-syn fibril formation (ThT, words) ([3]; 20 μM α-syn, 20 μM compound): completely inhibited fibril formation | Inhibition of calcein release ([4]; positive control): completely inhibits calcein release | Apparent size (Rh) of αSOs-Alexa488 in the presence of DOPG liposomes and compound [5]: 50 nm | Percentage of α-syn monomers in αSO sample [6]: 22% | Percentage of compound bound to DOPG vesicles (pelleted) [2]: 0–2%

Cofilin-1 [Cfl1]
Effect of protein ligand on α-syn aggregation (ThT, words) ([3]; 20 μM α-syn monomer, 1 μM ligand): dramatic reduction in aggregation | Change in Rh of αSOs-Alexa488 on titration with ligand ([7]; up to 150 μM ligand, in solution): little change in Rh

COc1ccccc1CNCCCCCCNCCCCCCCCNCCCCCCNCc1ccccc1OC [A6, Methoctramine]
Effect on lag phase of α-syn aggregation ([3]; 20 μM α-syn, 20 μM compound): modestly increased the lag phase | Apparent size (Rh) of αSOs-Alexa488 in the presence of DOPG liposomes and compound [5]: ~10 nm | αSO binding signal in sandwich ELISA vs positive control [8]: to a smaller extent | IC50 [9]: 0.32 µM | Percentage of compound bound to DOPG vesicles (pelleted) [2]: 60–95%

C=C1c2cccc(O)c2C(=O)C2=C(O)[C@]3(O)C(=O)C(C(N)=O)=C(O)[C@@H](N(C)C)[C@@H]3[C@@H](O)[C@H]12 [A5, Metacycline]
Effect on α-syn fibril formation (ThT, words) ([3]; 20 μM α-syn, 20 μM compound): completely inhibited fibril formation | αSO binding signal in sandwich ELISA vs positive control [8]: slightly higher absorption than the positive control | Response in dose-response calcein assay [9]: failed to show any response

CC(C)(C)CC(C)(C)c1ccc(OCCOCC[N+](C)(C)Cc2ccccc2)cc1 [A3, Benzethonium]
Percentage of compound bound to DOPG vesicles (pelleted) [2]: 60–95%

CC(C)=CC[C@@H](O)C1=CC(=O)c2c(O)ccc(O)c2C1=O [A7, Shikonin]
αSO binding signal in sandwich ELISA vs positive control [8]: slightly higher absorption than the positive control | Response in dose-response calcein assay [9]: failed to show any response

N.N.O=C([O-])C1(C(=O)[O-])CCC1.[Pt+2] [A9, Carboplatin]
Response in dose-response calcein assay [9]: failed to show any response

[H]/N=C(\N/C(=N/[H])NCCCCCCNC(=N)NC(=N)Nc1ccc(Cl)cc1)Nc1ccc(Cl)cc1 [A1, Chlorhexidine]
Decrease of half-time of fibrillation compared to α-syn alone ([3]; 20 μM α-syn, 20 μM compound): ~2 fold | Apparent size (Rh) of αSOs-Alexa488 in the presence of DOPG liposomes and compound [5]: ~10 nm | Kd [8]: 130 ± 40 µM | αSO binding signal in sandwich ELISA vs positive control [8]: decrease in binding | Percentage of compound bound to DOPG vesicles (pelleted) [2]: 60–95%

Serine-tRNA ligase [SerRS]
Reduction of half-time of α-syn fibrillation ([3]; 20 μM α-syn, 1 μM ligand): more than 3 fold | Rh of αSOs-Alexa488 after binding to ligand ([7]; 100–150 μM ligand, αSO alone 10 nm): ~12.5 nm

Cc1cc(C(C)(C)CC(C)(C)C)ccc1OCCOCC[N+](C)(C)Cc1ccccc1 [A2, Methyl benzethonium]
Decrease of half-time of fibrillation compared to α-syn alone ([3]; 20 μM α-syn, 20 μM compound): ~2 fold | Apparent size (Rh) of αSOs-Alexa488 in the presence of DOPG liposomes and compound [5]: ~10 nm | Kd [8]: 120 ± 90 µM | αSO binding signal in sandwich ELISA vs positive control [8]: decrease in binding | Percentage of α-syn monomers in αSO sample [6]: 23% | Percentage of compound bound to DOPG vesicles (pelleted) [2]: 60–95%

C/C=C1/[C@H](O[C@@H]2O[C@H](CO)[C@@H](O)[C@H](O)[C@H]2O)OC=C(C(=O)OC)[C@H]1CC(=O)OCCc1ccc(O)c(O)c1 [oleuropein]
Inhibition of calcein release ([4]; negative control): weak or no inhibitory effect
